Source: US12076315B2 (Clear Creek Bio, Inc., priority 2020, dated 2024)
“Also recorded” adds a separate entry of the source. Like-named read-outs stand apart in the source and are kept apart here.

Conditions: for Stability of the polymorphic form under ambient conditions (temperature and humidity): unstable forms convert to Pattern C; for Stability of the polymorphic form under ambient conditions (temperature and humidity) / Time after which the polymorph converts to Pattern C: sodium salt; for Comments: stability of the polymorph: Table 3, solid polymorph of brequinar sodium salt on storage

Cc1c(-c2ccc(-c3ccccc3F)cc2)nc2ccc(F)cc2c1C(=O)[O-].[Na+] [Pattern A, 6-Flouro-2-(2′-fluoro-1,1′-biphenyl-4-yl)-3-methyl-4-quinolinecarboxylic acid sodium salt]
Stability of the polymorphic form under ambient conditions (temperature and humidity): metastable

Cc1c(-c2ccc(-c3ccccc3F)cc2)nc2ccc(F)cc2c1C(=O)[O-].[Na+] [Pattern B, 6-Flouro-2-(2′-fluoro-1,1′-biphenyl-4-yl)-3-methyl-4-quinolinecarboxylic acid sodium salt]
Comments: stability of the polymorph: hydrate KF 4.8% unstable, | Time after which the polymorph converts to Pattern C (at ambient condition): convert to Pattern C after 4 days | Stability of the polymorphic form under ambient conditions (temperature and humidity): unstable

Cc1c(-c2ccc(-c3ccccc3F)cc2)nc2ccc(F)cc2c1C(=O)[O-].[Na+] [Pattern C, 6-Flouro-2-(2′-fluoro-1,1′-biphenyl-4-yl)-3-methyl-4-quinolinecarboxylic acid sodium salt]
Stability of the polymorphic form under ambient conditions (temperature and humidity) (listed as polymorphic form C): stable; also recorded: most stable

Cc1c(-c2ccc(-c3ccccc3F)cc2)nc2ccc(F)cc2c1C(=O)[O-].[Na+] [Pattern D, 6-Flouro-2-(2′-fluoro-1,1′-biphenyl-4-yl)-3-methyl-4-quinolinecarboxylic acid sodium salt]
Time after which the polymorph converts to Pattern C (at ambient condition): C after 3 days at ambient | Stability of the polymorphic form under ambient conditions (temperature and humidity): unstable

Cc1c(-c2ccc(-c3ccccc3F)cc2)nc2ccc(F)cc2c1C(=O)[O-].[Na+] [Pattern E, 6-Flouro-2-(2′-fluoro-1,1′-biphenyl-4-yl)-3-methyl-4-quinolinecarboxylic acid sodium salt]
Time after which the polymorph converts to Pattern C (closed cap storage): Pattern C after 1 week | Stability of the polymorphic form under ambient conditions (temperature and humidity): unstable

Cc1c(-c2ccc(-c3ccccc3F)cc2)nc2ccc(F)cc2c1C(=O)[O-].[Na+] [Pattern F, 6-Flouro-2-(2′-fluoro-1,1′-biphenyl-4-yl)-3-methyl-4-quinolinecarboxylic acid sodium salt]
Time after which the polymorph converts to Pattern C (closed cap storage): Pattern C after 1 week | Stability of the polymorphic form under ambient conditions (temperature and humidity): unstable

Cc1c(-c2ccc(-c3ccccc3F)cc2)nc2ccc(F)cc2c1C(=O)[O-].[Na+] [Pattern G, 6-Flouro-2-(2′-fluoro-1,1′-biphenyl-4-yl)-3-methyl-4-quinolinecarboxylic acid sodium salt]
Comments: stability of the polymorph: 15.3%), unstable, convert | Time after which the polymorph converts to Pattern C (at ambient condition): to Pattern C after 2 weeks | Stability of the polymorphic form under ambient conditions (temperature and humidity): unstable

Cc1c(-c2ccc(-c3ccccc3F)cc2)nc2ccc(F)cc2c1C(=O)[O-].[Na+] [Pattern I, 6-Flouro-2-(2′-fluoro-1,1′-biphenyl-4-yl)-3-methyl-4-quinolinecarboxylic acid sodium salt]
Comments: stability of the polymorph: KF 7.3%, unstable, | Time after which the polymorph converts to Pattern C (at ambient condition): 2 days at ambient condition. | Stability of the polymorphic form under ambient conditions (temperature and humidity): unstable

Cc1c(-c2ccc(-c3ccccc3F)cc2)nc2ccc(F)cc2c1C(=O)[O-].[Na+] [Pattern J, 6-Flouro-2-(2′-fluoro-1,1′-biphenyl-4-yl)-3-methyl-4-quinolinecarboxylic acid sodium salt]
Comments: stability of the polymorph: Unstable, convert to Pattern | Time after which the polymorph converts to Pattern C (closed cap storage): C after 2 weeks (closed cap | Stability of the polymorphic form under ambient conditions (temperature and humidity): unstable
